Like-named read-outs stand apart in the source and are kept apart here. Non-standard residues stand in square brackets, D forms with d. Residues, ends and D or L forms follow the SMILES beside them. *: point of attachment. Dolaproine = CO[C@@H]([C@@H]1CCCN1)[C@@H](C)C(=O)O; Dil = CC[C@H](C)[C@H](NC)[C@@H](CC(=O)O)OC; X2 = CN1[C@@H]2CC[C@@H](C2)[C@H]1C(=O)*; Phe(ol) = N[C@H](CO)Cc1ccccc1
Columns and labels:
Jurkat cells = assay: In vitro cell killing assay of payloads (cell proliferation, Cell-Titer-Glo); type: cell-based; details: Homo sapiens, 120 h, Cell-Titer-Glo after five days
KU812 cells = assay: as above; type: cell-based; details: Homo sapiens, 120 h, Cell-Titer-Glo after five days
MDA-MB231 clone 40 cells = assay: as above; type: cell-based; details: Homo sapiens, 120 h; MDA-MB-231 clone 40 cells; Cell-Titer-Glo after five days
HCC1954 cells = assay: as above; type: cell-based; details: Homo sapiens, 120 h, HCC1954 cells, Cell-Titer-Glo after five days, read-out: In vitro cell killing (IC50 (nM)) HCC1954
H526 cells = assay: as above; type: cell-based; details: Homo sapiens, 120 h, NCI-H526 cells, Cell-Titer-Glo after five days, read-out: In vitro cell killing (IC50 (nM)) NCI-H526
JimT1 cells = assay: as above; type: cell-based; details: Homo sapiens, JIMT-1, 120 h, JimT1 cells, Cell-Titer-Glo after five days, read-out: In vitro cell killing (IC50 (nM)) JimT1
MDA-MB231 clone 16 cells = assay: as above; type: cell-based; details: Homo sapiens, 120 h; MDA-MB-231 clone 16 cells; Cell-Titer-Glo after five days
CMK11-5 cells = assay: as above; type: cell-based; details: Homo sapiens, 120 h; CMK-11-5 cells; Cell-Titer-Glo after five days
[1] = acidic condition
SKBR3 cells = assay: In vitro cell killing assay of payloads (cell proliferation, Cell-Titer-Glo); type: cell-based; details: Homo sapiens, SK-BR-3, 120 h, Cell-Titer-Glo after five days
Description: (§1) For evaluation of the cell killing potency of the cytotoxic peptides of Formula (I) in vitro, cell proliferation assays were performed in parallel with 8 cell lines: MDA-MB231 clone 16, clone 40, JimT1, HCC1954, H526, KU812, CMK11-5 cells and Jurkat cells. In addition, in vitro, cell proliferation assays were performed using 3 other cell lines: A375, SKBR3 and NCI-N87. All the cell lines are described in more detail in Example 106 and were also used to assess the in vitro potency of immunoconjugates of the invention. The cell proliferation assays were conducted with Cell-Titer-Glo™ (Promega) five days after cells were incubated with various concentrations of ADCs (Riss et al., (2004) Assay Drug Dev Technol. 2:51-62).

NCI-N87 cells = assay: as above; type: cell-based; details: Homo sapiens, 120 h, Cell-Titer-Glo after five days
Description: as §1

A375 cells = assay: as above; type: cell-based; details: Homo sapiens, A-375, 120 h, Cell-Titer-Glo after five days
Description: as §1

CC[C@H](C)[C@@H]([C@@H](CC(=O)N1CCC[C@H]1[C@H](OC)[C@@H](C)C(=O)N[C@H](C)[C@@H](O)c1ccccc1)OC)N(C)C(=O)[C@@H](NC(=O)[C@H]1N[C@@H]2CC[C@H]1C2)C(C)C [Compound 3, (1R,3S,4S)-N-((S)-1-(((3R,4S,5S)-1-((S)-2-((1R,2R)-3-(((1S,2R)-1-Hydroxy-1-phenylpropan-2-yl)amino)-1-methoxy-2-methyl-3-oxopropyl)pyrrolidin-1-yl)-3-methoxy-5-methyl-1-oxoheptan-4-yl)(methyl)amino)-3-methyl-1-oxobutan-2-yl)-2-azabicyclo[2.2.1]heptane-3-carboxamide]
IC50 (Jurkat cells): 3.01 nM
IC50 (KU812 cells): 6.78 nM
IC50 (MDA-MB231 clone 40 cells): 23.9 nM
IC50 (HCC1954 cells; Table 2a): 10.8 nM
IC50 (H526 cells; Table 2a): 22 nM
IC50 (JimT1 cells; Table 2a): 42.1 nM
IC50 (MDA-MB231 clone 16 cells): 12.7 nM
IC50 (CMK11-5 cells): 14.7 nM

CCCCOP(=O)(O)[C@H](Cc1ccccc1)NC(=O)[C@H](C)[C@@H](OC)[C@@H]1CCCN1C(=O)C[C@@H](OC)[C@H]([C@@H](C)CC)N(C)C(=O)[C@@H](NC(=O)[C@@H]1[C@H]2CC[C@H](C2)N1C(=O)CCCCCN1C(=O)C=CC1=O)C(C)C [Compound 29, Butyl hydrogen ((R)-1-((2R,3R)-3-((S)-1-((3R,4S,5S)-4-((S)-2-((1R,3S,4S)-2-(6-(2,5-dioxo-2,5-dihydro-1H-pyrrol-1-yl)hexanoyl)-2-azabicyclo[2.2.1]heptane-3-carboxamido)-N,3-dimethylbutanamido)-3-methoxy-5-methylheptanoyl)pyrrolidin-2-yl)-3-methoxy-2-methylpropanamido)-2-phenylethyl)phosphonate]
hydrolysis of the ester [1]: prone to hydrolysis in acidic condition

CC[C@H](C)[C@@H]([C@@H](CC(=O)N1CCC[C@H]1[C@H](OC)[C@@H](C)C(=O)N[C@@H](Cc1ccccc1)C(=O)NS(=O)(=O)CCCN=[N+]=[N-])OC)N(C)C(=O)[C@@H](NC(=O)[C@@H]1[C@H]2CC[C@H](C2)N1C)C(C)C [Compound 46, (1R,3S,4S)-N-((S)-1-(((3R,4S,5S)-1-((S)-2-((1R,2R)-3-(((S)-N-1-(3-Azidopropylsulfonamido)-1-oxo-3-phenylpropan-2-yl)amino)-1-methoxy-2-methyl-3-oxopropyl)pyrrolidin-1-yl)-3-methoxy-5-methyl-1-oxoheptan-4-yl)(methyl)amino)-3-methyl-1-oxobutan-2-yl)-2-methyl-2-azabicyclo[2.2.1]heptane-3-carboxamide]
IC50 (Jurkat cells): 6.1 nM
IC50 (KU812 cells): 8.4 nM
IC50 (MDA-MB231 clone 40 cells): 11.7 nM
IC50 (HCC1954 cells; Table 2a): 2.3 nM
IC50 (H526 cells; Table 2a): 29.5 nM
IC50 (JimT1 cells; Table 2a): 14.2 nM
IC50 (MDA-MB231 clone 16 cells): 8.1 nM
IC50 (CMK11-5 cells): 10.4 nM

CC[C@H](C)[C@@H]([C@@H](CC(=O)N1CCC[C@H]1[C@H](OC)[C@@H](C)C(=O)N[C@H](CO)Cc1ccccc1)OC)N(C)C(=O)[C@@H](NC(=O)[C@@H]1[C@H]2CC[C@H](C2)N1C)C(C)C [Compound 51, (1R,3S,4S)-N-((S)-1-(((3R,4S,5S)-1-((S)-2-((1R,2R)-3-(((S)-1-Hydroxy-3-phenylpropan-2-yl)amino)-1-methoxy-2-methyl-3-oxopropyl)pyrrolidin-1-yl)-3-methoxy-5-methyl-1-oxoheptan-4-yl)(methyl)amino)-3-methyl-1-oxobutan-2-yl)-2-methyl-2-azabicyclo[2.2.1]heptane-3-carboxamide] (X2-V[Dil][Dolaproine][Phe(ol)])
IC50 (SKBR3 cells): 0.035 nM
IC50 (NCI-N87 cells): 0.053 nM
IC50 (A375 cells): 0.154 nM
IC50 (HCC1954 cells; Table 2b): 0.028 nM
IC50 (H526 cells; Table 2b): 0.184 nM
IC50 (JimT1 cells; Table 2b): 0.081 nM

CC[C@H](C)[C@@H]([C@@H](CC(=O)N1CCC[C@H]1[C@H](OC)[C@@H](C)C(=O)N[C@@H](Cc1ccccc1)CS(N)(=O)=O)OC)N(C)C(=O)[C@@H](NC(=O)[C@@H]1[C@H]2CC[C@H](C2)N1C)C(C)C [Compound 55, (1R,3S,4S)-N-((S)-1-(((3R,4S,5S)-3-methoxy-1-((S)-2-((1R,2R)-1-methoxy-2-methyl-3-oxo-3-(((S)-1-phenyl-3-sulfamoylpropan-2-yl)amino)propyl)pyrrolidin-1-yl)-5-methyl-1-oxoheptan-4-yl)(methyl)amino)-3-methyl-1-oxobutan-2-yl)-2-methyl-2-azabicyclo[2.2.1]heptane-3-carboxamide]
IC50 (SKBR3 cells): 0.21 nM
IC50 (NCI-N87 cells): 0.643 nM
IC50 (A375 cells): 2.75 nM
IC50 (HCC1954 cells; Table 2b): 0.124 nM
IC50 (H526 cells; Table 2b): 0.364 nM
IC50 (JimT1 cells; Table 2b): 0.751 nM

From patent publication US9988420B2, “Cytotoxic peptides and conjugates thereof” (priority 2013, dated 2018)
